Test results as given in PubChem BioAssay (NCI).
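Step 1: Grow cells in 96-well plates. Step 2: Expose to compound for 48 hours at 5 concentrations. Step 3: Interpolate endpoints linearly; if unreached, use highest concentration. Here, GI50 denotes the concentration required for 50% inhibition of growth. TGI: total growth inhibition.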

Experiments:
Test in all cases: NCI anticancer screen, dose series, 48 h
[1] = system: SF-268 CNS
[2] = system: A498 renal
[3] = system: EKVX NSCLC
[4] = system: SK-MEL-28 melanoma
[5] = system: SR leukemia
[6] = system: MDA-MB-435
[7] = system: SF-539 CNS
[8] = system: MALME-3M melanoma
[9] = system: SK-OV-3 ovarian
[10] = system: OVCAR-4 ovarian
[11] = system: NCI/ADR-RES ovarian
[12] = system: OVCAR-8 ovarian
[13] = system: HOP-62 NSCLC
[14] = system: NCI-H23 lung
[15] = system: IGROV1 ovarian
[16] = system: SNB-19 CNS
[17] = system: SF-295 CNS
[18] = system: K-562 leukemia
[19] = system: NCI-H460 lung
[20] = system: COLO 205 colon
[21] = system: UACC-62 melanoma
[22] = system: HS 578T breast
[23] = system: OVCAR-5 ovarian
[24] = system: OVCAR-3 ovarian
[25] = system: HCT-116 colon
[26] = system: PC-3 prostate
[27] = system: HCT-15 colon
[28] = system: DU-145 prostate
[29] = system: HL-60(TB) leukemia
[30] = system: RPMI-8226 leukemia
[31] = system: SK-MEL-2 melanoma
[32] = system: A549 NSCLC
[33] = system: LOX IMVI melanoma
[34] = system: UO-31 renal
[35] = system: MCF7 breast
[36] = system: NCI-H226 lung
[37] = system: HT29 colon
[38] = system: TK-10 renal
[39] = system: MOLT-4 leukemia
[40] = system: SK-MEL-5 melanoma
[41] = system: SN12C renal
[42] = system: SNB-75 CNS
[43] = system: RXF 393 renal
[44] = system: M14 melanoma
[45] = system: HOP-92 NSCLC
[46] = system: U251 CNS
[47] = system: ACHN renal
[48] = system: T-47D breast
[49] = system: CAKI-1 renal
[50] = system: NCI-H522 lung
[51] = system: UACC-257 melanoma
[52] = system: HCC-2998 colon
[53] = system: KM12 colon
[54] = system: 786-0 renal
[55] = system: BT-549 breast
[56] = system: SW-620 colon
[57] = system: MDA-MB-231 breast

Compound: O=c1cc(-c2ccc(Cl)cc2)[nH]c2ccccc12
- GI50 [1]: 83.3 µM
- TGI [1]: > 100 µM
- GI50 [2]: 51.6 µM
- TGI [2]: > 100 µM
- GI50 [3]: 51.4 µM
- TGI [3]: > 100 µM
- GI50 [4]: > 100 µM
- TGI [4]: > 100 µM
- GI50 [5]: 4.76 µM
- TGI [5]: > 100 µM
- GI50 [6]: 2.89 µM
- TGI [6]: 28.5 µM
- GI50 [7]: 52.8 µM
- TGI [7]: > 100 µM
- GI50 [8]: 53.5 µM
- TGI [8]: > 100 µM
- GI50 [9]: 44.8 µM
- TGI [9]: > 100 µM
- GI50 [10]: > 100 µM
- TGI [10]: > 100 µM
- GI50 [11]: 27.1 µM
- TGI [11]: > 100 µM
- GI50 [12]: > 100 µM
- TGI [12]: > 100 µM
- GI50 [13]: 61.4 µM
- TGI [13]: > 100 µM
- GI50 [14]: 63 µM
- TGI [14]: > 100 µM
- GI50 [15]: 61.5 µM
- TGI [15]: > 100 µM
- GI50 [16]: 95.3 µM
- TGI [16]: > 100 µM
- GI50 [17]: 41.2 µM
- TGI [17]: > 100 µM
- GI50 [18]: 7.03 µM
- TGI [18]: > 100 µM
- GI50 [19]: 39.6 µM
- TGI [19]: > 100 µM
- GI50 [20]: 35.1 µM
- TGI [20]: > 100 µM
- GI50 [21]: 37.4 µM
- TGI [21]: > 100 µM
- GI50 [22]: 28.9 µM
- TGI [22]: > 100 µM
- GI50 [23]: > 100 µM
- TGI [23]: > 100 µM
- GI50 [24]: 31.2 µM
- TGI [24]: > 100 µM
- GI50 [25]: 32.5 µM
- TGI [25]: > 100 µM
- GI50 [26]: 35.2 µM
- TGI [26]: > 100 µM
- GI50 [27]: 12.9 µM
- TGI [27]: > 100 µM
- GI50 [28]: 66.4 µM
- TGI [28]: > 100 µM
- GI50 [29]: 5.62 µM
- TGI [29]: > 100 µM
- GI50 [30]: 46.9 µM
- TGI [30]: > 100 µM
- GI50 [31]: > 100 µM
- TGI [31]: > 100 µM
- GI50 [32]: > 100 µM
- TGI [32]: > 100 µM
- GI50 [33]: 39.3 µM
- TGI [33]: > 100 µM
- GI50 [34]: > 100 µM
- TGI [34]: > 100 µM
- GI50 [35]: 41.3 µM
- TGI [35]: > 100 µM
- GI50 [36]: > 100 µM
- TGI [36]: > 100 µM
- GI50 [37]: 40.7 µM
- TGI [37]: > 100 µM
- GI50 [38]: > 100 µM
- TGI [38]: > 100 µM
- GI50 [39]: 46.8 µM
- TGI [39]: > 100 µM
- GI50 [40]: 26.7 µM
- TGI [40]: > 100 µM
- GI50 [41]: > 100 µM
- TGI [41]: > 100 µM
- GI50 [42]: 37.4 µM
- TGI [42]: > 100 µM
- GI50 [43]: 45.9 µM
- TGI [43]: > 100 µM
- GI50 [44]: 27.8 µM
- TGI [44]: > 100 µM
- GI50 [45]: 64.2 µM
- TGI [45]: > 100 µM
- GI50 [46]: 41.5 µM
- TGI [46]: > 100 µM
- GI50 [47]: 57.8 µM
- TGI [47]: > 100 µM
- GI50 [48]: 63.2 µM
- TGI [48]: > 100 µM
- GI50 [49]: 47.3 µM
- TGI [49]: > 100 µM
- GI50 [50]: 59.6 µM
- TGI [50]: > 100 µM
- GI50 [51]: > 100 µM
- TGI [51]: > 100 µM
- GI50 [52]: > 100 µM
- TGI [52]: > 100 µM
- GI50 [53]: 27.2 µM
- TGI [53]: > 100 µM
- GI50 [54]: 64.8 µM
- TGI [54]: > 100 µM
- GI50 [55]: 29.4 µM
- TGI [55]: > 100 µM
- GI50 [56]: 27.7 µM
- TGI [56]: > 100 µM
- GI50 [57]: 57 µM
- TGI [57]: > 100 µM
